Assay results published in patent US20110294874A1, “DIAGNOSIS AND THERAPY OF ORGAN DYSFUNCTION USING SPHINGANINE-1-PHOSPHATE” (The Trustees of Columbia University in the City of New York, priority 2008, published 2011).

Key:
[1] = system: C57BL/6 mice subjected to liver IR; assay: Liver H&E histology after liver IR (percent necrosis, Suzuki score); assay type: in vivo, mouse; conditions: liver IR; for Suzuki score (0 = no injury, 12 = maximal injury): H&E liver
Procedure: (§1) Mice were anesthetized with intraperitoneal pentobarbital (50 mg/kg or to effect). Mice were placed under a heating lamp and on a 37° C. heating pad. After a midline laparotomy and intraperitoneal application of 20 U heparin, left lateral and median lobes of the liver were subjected to ischemia with a microaneurysm clip occluding the hepatic triad above the bifurcation. This method of partial hepatic ischemia results in a segmental (˜70%) hepatic ischemia but spares the right lobe of the liver and prevents mesenteric venous congestion by allowing portal decompression throughout the right and caudate lobes of the liver. The liver was then repositioned in the peritoneal cavity in its original location for 60 minutes. The liver was kept moist with gauze soaked in 0.9% normal saline. The body temperature was monitored by an infrared temperature sensor (Linear Laboratories, Fremont, Calif.) every 10 min. and maintained at 37° C. using a heating lamp and a heating pad. After 60 minutes, the liver was reperfused and the wound closed. Sham-operated mice were subjected to laparotomy and identical liver manipulations without vascular occlusion. Two, 4 and 24 hr after reperfusion, plasma was collected for the measurement of alanine aminotransferase (ALT), a common indicator of liver damage, as well as creatinine (Cr) a common indicator of kidney damage. The liver tissue subjected to IR was collected to measure percent liver necrosis (2, 4 and 24 hr after IR), neutrophil infiltration (with immunohistochemistry, 4 and 24 hr after IR), apoptosis (with terminal deoxynucleotidyl transferase-mediated dUTP nick end labeling staining, caspase 3 immunoblotting and DNA laddering, 24 hr after IR), and inflammation by RT-PCR for pro-inflammatory mRNAs (4 hr after IR).
Livers were also analyzed for the degree of hepatocellular damage using the Suzuki's criteria (Suzuki et al., Transplantation 1993, Vol. 55, pp. 1265-1272). To obtain a Suzuki score, 3 liver injury indices are graded: sinusoidal congestion (0-4), hepatocyte necrosis (0-4), and ballooning degeneration (0-4) are graded for a total score of 0-12. No necrosis, congestion, or centrilobular ballooning is given a score of 0 whereas severe congestion/ballooning and >60% lobular necrosis is given a value of 4.

[2] = system: C57BL/6 mice subjected to liver IR; assay: Kidney H&E histology after liver IR; assay type: in vivo, mouse; conditions: vs vehicle-treated controls
From the text: Liver IR-induced AKI in mice shared similar histological changes observed in human AKI associated with liver failure, as observed in H&E slides of kidney sections taken from the mice (see FIG. 3). Multifocal acute tubular injury including individual cell necrosis involving the juxtamedullary proximal tubules of the S3 segment was observed. […] Endothelial apoptosis of peritubular capillaries was also visible in H&E sections as linear arrays of apoptotic bodies corresponding to the interstitial capillary lining endothelium. […] The number of glomeruli with detectable juxtaglomerular apparatus and the number of cells per juxtaglomerular apparatus were both increased after liver IR, indicating hyperplasia of the juxtaglomerular apparatus. […] Liver IR produced large necrotic areas of liver tissue. The average percentage of necrotic areas in liver samples taken from liver IR mice were 92%±2% (n=6), while no necrosis was found in sham-operated mice. Livers were also analyzed for the degree of hepatocellular damage.

[3] = system: C57BL/6 mice subjected to liver IR; assay: Neutrophil infiltration into liver and kidney after liver IR; assay type: in vivo, mouse
Procedure: as §1, with “The liver tissue subjected to IR was collected to measure percent liver necrosis (2, 4 and 24 hr after IR), neutrophil infiltration (with immunohistochemistry, 4 and 24 hr after IR), apoptosis (with terminal deoxynucleotidyl transferase-mediated dUTP nick end labeling staining, caspase 3 immunoblotting and DNA laddering, 24 hr after IR), and inflammation by RT-PCR for pro-inflammatory mRNAs (4 hr after IR).” left out

[4] = system: C57BL/6 mice subjected to liver IR; assay: Apoptosis (TUNEL, DNA laddering, caspase 3) and F-actin (phalloidin) in liver and kidney after liver IR; assay type: in vivo, mouse
Procedure: as §1
Apoptosis was detected in both liver and kidney taken from mice subjected to liver IR, through TUNEL staining, DNA laddering and caspase 3 fragmentation.

[5] = system: C57BL/6 mice subjected to liver IR; assay: Evans blue dye extravasation (vascular permeability) in liver and kidney after liver IR; assay type: in vivo, mouse; conditions: vs vehicle-treated group
Procedure: After observing marked endothelial apoptosis following liver IR, liver and kidney vascular permeability after liver IR was measured with Evans blue dye (EBD) injection. EBD binds to plasma proteins and its appearance in extravascular tissues reflects an increase in vascular permeability, which is indicative of organ injury. Liver IR increased the EBD content (in μg EBD/g dry weight) in the liver (377±48, N=6) compared to sham-operated mice (48±7, N=4, p<0.001).

[6] = system: C57BL/6 mice subjected to liver IR; assay: Survival of mice after liver IR; assay type: in vivo, mouse; conditions: 24 hours post liver IR
From the text: Without Sg1P administration, 20% of mice subjected to liver IR stayed alive after 1 week. With Sg1P treatment, 50% of mice subjected to liver IR that received Sg1P remained alive after the same time period.

[7] = system: SK1 KO mice subjected to liver IR; assay: Liver IR in SK1 KO mice: plasma ALT and creatinine; assay type: in vivo, mouse; conditions: SK1KO, hepatic IR 24 h
Procedure: The effects of administering Sg1P (0.1 mg/kg i.v. and 0.2 mg/kg s.c.) on liver and renal injury were also determined in the KO mice and are also shown in Tables 9 and 10 below.

ERK/MAPK, Akt, HSP27 = assay: Immunoblotting/RT-PCR of liver and kidney of mice injected with Sg1P; assay type: in vivo, mouse; conditions: i.v. injection
Procedure: Mice were injected with sphinganine 1-phophate intravenously and their kidney and liver tissues were extracted at 15 minutes after injection (for immunoblotting of phosphorylated proteins) or at 5 hours after injection (for RT-PCR). […] HSP27 is a known F-actin stabilizing and anti-apoptotic protein.

[8] = system: human renal glomerular endothelial cells (HRGEC); assay: HRGEC apoptosis, kinase phosphorylation, HSP27 and F-actin; assay type: cell-based
Procedure: IHUVEC—immortalized human umbilical vein endothelial cells (ATCC, P.O. Box 1549 Manassas, Va. 20108) or HRGEC—human renal glomerular endothelial cells (ScienCell Research Laboratories, 6076 Corte Del Cedro Carlsbad, Calif. 92011) were cultured within a humidified atmosphere of 5% CO2 in air and grown to confluence. When confluent, the cells were trypsinized and seeded onto 0.45 μm pore size polycarbonate filters at the base of inserts of 6.5 mm diameter Transwell chambers and cultured until confluence.
In further experiments, apoptosis was induced in human renal endothelial (HRGEC) cells with either TNF-α plus cycloheximide or H2O2, with or without Sg1P treatment. In both cases, the addition of Sg1P (1 uM) reduced PARP and caspase 3 fragmentations, which are indices of apoptosis (N=2, data not shown).

## CCCCCCCCCCCCCCC[C@@H](O)[C@@H](N)COP(=O)(O)O [Sg1P, sphinganine-1-phosphate]
[1]
  Suzuki score (0 = no injury, 12 = maximal injury): 5.2 ± 0.8
[1]; listed as sphinganine 1-phosphate
  Suzuki score (0 = no injury, 12 = maximal injury): 5.2±0.8
[1]; H&E
  Average percent necrotic areas in liver: 44±8%
[2]
  Indications of AKI in kidney H&E slides: significantly less indications of AKI
[3]
  Neutrophils in necrotic areas of the liver: 21.8±7.1 neutrophils/field
  Neutrophils in the kidneys: 0.8±0.3 neutrophils/field
[4]
  Caspase 3 fragmentation in liver and kidney: significantly reduced
  TUNEL staining, DNA laddering in liver and kidney: significantly reduced
[4]; vs vehicle
  F-actin structure in liver and kidney (phalloidin): better-preserved F-actin structure
[5]
  Increase in EBD content in liver and kidney: significantly lower
[6]
  Survival rate: ~90%
[7]
  Creatinine (mean): 0.709 mg/dL
[7]; 0.1 mg/kg i.v. and 0.2 mg/kg s.c.
  ALT (mean): 9602.01 U/L
ERK/MAPK, Akt, HSP27; tissues 15 minutes after injection
  Phosphorylation of ERK/MAPK, Akt and HSP27 in liver and kidney: resulted in phosphorylation
ERK/MAPK, Akt, HSP27; tissues 5 hours after injection
  HSP27 mRNA expression in liver and kidney: induced
[8]; 1 uM, apoptosis induced with TNF-α plus cycloheximide or H2O2
  PARP and caspase 3 fragmentations: reduced
[8]; HRGEC treated with TNF-α, co-administration
  Phalloidin staining (F-actin): restored the phalloidin staining
[8]; HRGEC, 1 μM
  HSP27 phosphorylation and total HSP27 expression: induced the phosphorylation of HSP27, as well as increased expression of total HSP27
  Phosphorylation of ERK and Akt: resulted in the phosphorylation
